Values after ≈ are worked out from the molar mass of the structure shown.
How the values were obtained:
Assay in all cases: In vitro assay of antibacterial activity (agar dilution MIC)
Format in all cases: cell-based
[1] = system: Streptococcus pyogenes 930; settings: organism code EE, BHI agar, 35-37° C., 20 to 24 hours
Method: (§1) Representative compounds of the present invention were assayed in vitro for antibacterial activity as follows: Twelve petri dishes containing successive aqueous dilutions of the test compound mixed with 10 mL of sterilized Brain Heart Infusion (BHI) agar (Difco 0418-01-5) were prepared. Each plate was inoculated with 1:100 (or 1:10 for slow-growing strains, such as Micrococcus and Streptococcus) dilutions of up to 32 different microorganisms, using a Steers replicator block. The inoculated plates were incubated at 35-37° C. for 20 to 24 hours. In addition, a control plate, using BHI agar containing no test compound, was prepared and incubated at the beginning and end of each test.
(§2) An additional plate containing a compound having known susceptibility patterns for the organisms being tested and belonging to the same antibiotic class as the test compound was also prepared and incubated as a further control, as well as to provide test-to-test comparability. […] After incubation, each plate was visually inspected. The minimum inhibitory concentration (MIC) was defined as the lowest concentration of drug yielding no growth, a slight haze, or sparsely isolated colonies on the inoculum spot as compared to the growth control.

[2] = system: Streptococcus pneumoniae ATCC 6303; settings: organism code GG, BHI agar, 35-37° C., 20 to 24 hours
Method: as §1, §2

[3] = system: Streptococcus pyogenes PIU 2548; settings: organism code FF, BHI agar, 35-37° C., 20 to 24 hours
Method: as §1, §2

[4] = system: Haemophilus influenzae DILL AMP R; settings: organism code CC, BHI agar, 35-37° C., 20 to 24 hours
Method: as §1, §2

[5] = system: Streptococcus pyogenes EES61; settings: organism code DD, BHI agar, 35-37° C., 20 to 24 hours
Method: as §1, §2

[6] = system: Streptococcus pneumoniae 5649; settings: organism code JJ, BHI agar, 35-37° C., 20 to 24 hours
Method: as §1, §2

[7] = system: Staphylococcus aureus 1775; settings: organism code BB, BHI agar, 35-37° C., 20 to 24 hours
Method: as §1, §2

[8] = system: Staphylococcus aureus ATCC 6538P; settings: organism code AA, BHI agar, 35-37° C., 20 to 24 hours
Method: as §1, §2

[9] = system: Streptococcus pneumoniae 5737; settings: organism code HH, BHI agar, 35-37° C., 20 to 24 hours
Method: as §1, §2

Row | MIC [1] | MIC [2] | MIC [3] | MIC [4] | MIC [5] | MIC [6] | MIC [7] | MIC [8] | MIC [9] | Compound
1 | >128 µg/mL | 0.03 µg/mL | 1 µg/mL | 16 µg/mL | 0.03 µg/mL | 2 µg/mL | >100 µg/mL | 0.39 µg/mL | 128 µg/mL | CCC1OC(=O)C(C)C(=O)C(C)C(OC2OC(C)CC(N(C)C)C2O)C(C)(OCC=Cc2cnc3ccccc3c2)CC(C)C2NC(=O)OC(C2C)C1(C)O (stereo not drawn) [Example 8, Compound of Formula (II): R^1 is (Quinolin-3-yl)CH═CHCH2; R^2 is Hydrogen; R^3 and R^4 together are —C(O)—; R^5 is Hydrogen; R^p is Hydrogen]
2 | >128 µg/mL | 2 µg/mL | >128 µg/mL | 32 µg/mL | 1 µg/mL | 32 µg/mL | >100 µg/mL | 0.2 µg/mL | >128 µg/mL | CCC1OC(=O)C(C)C(=O)C(C)C(OC2OC(C)CC(N(C)C)C2O)C(C)(OCC=Cc2cnc3ccccc3c2)CC(C)C(N)C(C)C2OC(=O)OC12C (stereo not drawn) [Example 9, Compound of Formula (II): R^1 is (Quinolin-3-yl)CH═CHCH2; R^2 is Hydrogen; R^3 is Hydrogen; R^4 and R^5 are —C(O)—; R^p is Hydrogen]
3 | – | 0.5 µg/mL | 2 µg/mL | 16 µg/mL | 0.25 µg/mL | 1 µg/mL | >100 µg/mL | 0.78 µg/mL | >64 µg/mL | CCC1OC(=O)C(C)C(=O)C(C)C(OC2OC(C)CC(N(C)C)C2O)C(C)(OCC=Cc2cnc3ccccc3c2)CC(C)C(N)C(C)C(O)C1(C)O (stereo not drawn) [Example 7, Compound of Formula (II): R^1 is (Quinolin-3-yl)CH═CHCH2; R^2 is Hydrogen; R^3 is Hydrogen; R^4 is Hydrogen; R^5 is Hydrogen; R^p is Hydrogen]
4 | – | 0.06 µg/mL (≈ 0.0818 µM) | 32 µg/mL (≈ 43.6 µM) | 4 µg/mL (≈ 5.45 µM) | 0.06 µg/mL (≈ 0.0818 µM) | 16 µg/mL (≈ 21.8 µM) | >100 µg/mL | 0.2 µg/mL (≈ 0.273 µM) | – | CC[C@H]1OC(=O)[C@H](C)[C@@H](O[C@H]2C[C@@](C)(OC)[C@@H](O)[C@H](C)O2)[C@H](C)[C@@H](O[C@@H]2O[C@H](C)C[C@H](N(C)C)[C@H]2O)[C@](C)(O)C[C@@H](C)C(=O)[C@H](C)[C@@H](O)[C@]1(C)O [Ery. A, Erythromycin A, reference compound]
